Earlier results as cited in publication PMC10517971, “An inverse agonist of orphan receptor GPR61 acts by a G protein-competitive allosteric mechanism” (Nature Communications, 2023).

What was measured:
[1] = cited from earlier work
GPR61 = test system: GPR61; set-up: method as in PMID 14607265, PMID 31352450; details: cited from earlier work

CCCCCCCCCOc1ccc2[nH]cc(CCN)c2c1 [Compound 5-NOT, 5-nonyloxy-tryptamine]
solubility [1]: low solubility | potency as GPR61 inverse agonist (GPR61): low potency | selectivity (GPR61): lack of selectivity
